Test [1] addresses LBAA glyphosate oxidoreductase variant ARG 334 (His334 to Arg) (Ochrobactrum sp. G-1, UniProt D2KI28, H334R/S2A). The test is described as follows: Kinetic analysis of glyphosate oxidoreductase variant ARG 334 (site-directed mutagenesis). It counts as biochemical, bacterial isolate LBAA (Pseudomonas strain LBAA).
For test [2], the system named is Agrobacterium sp. strain T10 glyphosate oxidoreductase. The test is described as follows: Km of glyphosate oxidoreductase from Agrobacterium sp. strain T10. It is filed as biochemical. As for the experimental part:
A population of bacteria was isolated from a fixed-bed immobilized cell column, which employed Mannville R-635 diatomaceous earth beads, by plating on Tryptone Soy Agar (Difco), containing cylcoheximide at 100 ug/ml, and incubating at 28° C. The column had been run for three months on a waste-water feed from the Monsanto Company's Luling, MS, glyphosate production plant. The column contained 50 mg/ml glyphosate and NH3 as NH4Cl. Total organic carbon was 300 mg/ml and BOD's (Biological Oxygen Demand—a measure of “soft” carbon availability) was less than 30 mg/ml. This treatment column has been described (Heitkamp et al., 1990). […] Chromosomal DNA was prepared from this isolate and subjected to the same PCR procedure and with the same primers as described above for the strain LBr. A fragment of the correct size was generated and cloned into the E. coli expression vector. The glyphosate oxidoreductase activity was assayed and the Km for glyphosate also determined: […]

The target in test [3] is LBAA glyphosate oxidoreductase variant v1w2v3 (GLY84, LYS153, ARG334) (Ochrobactrum sp. G-1, UniProt D2KI28, H334R/S2A/S84G). Description: Kinetic analysis of domain switches, clone v1w2v3. Conditions: substrate glyphosate. It is filed as biochemical, bacterial isolate LBAA (Pseudomonas strain LBAA). The procedure: (§1) The mutagenesis procedure used was that of Mn++-poisoned PCR and the template was a linearized glyphosate oxidoreductase gene plasmid containing the synthetic glyphosate oxidoreductase gene (SEQ ID NO:8). The oligonucleotide primers used were homologous to regions in the vector and flanking the glyphosate oxidoreductase gene. The PCR conditions employed were as follows: 1 minute at 94° C., 2 minutes at 55° C., and 3 minutes at 72° C. and with 35 cycles. A 5:1 ratio of dCTP+dGTP+TTP to dATP was used. The reactions contained MnCl2 at 125, 250, 375, or 500 μM. After the reaction, the amplified product was recloned into a vector containing a weak E. coli promoter. This vector was a pBR327 derivative containing the araBAD promoter and suitable cloning sites. […] Growth rates were determined by measuring A550 over a 96 hour period. […] Protein concentrations were determined using the Bio-Rad protein dye-binding assay. […] Ten minutes was determined to be the optimal time for the enzyme assay using 10 μg lysate. […] Enzyme activity was determined from the amount of glyoxylate-DNPH adduct formed by measuring A520 against a standard of glyoxylate. […] The Km and Vmax were determined from Lineweaver Burk, Eadie-Hofstee and hyperbolic kinetic plots. […]

The target in test [4] is LBAA glyphosate oxidoreductase variant v1w2w3 (GLY84, LYS153, HIS334) (Ochrobactrum sp. G-1, UniProt D2KI28, S2A/S84G). Description: Kinetic analysis of domain switches, clone v1w2w3. Conditions: substrate glyphosate. It is filed as biochemical, bacterial isolate LBAA (Pseudomonas strain LBAA). The procedure: as §1
The target in test [5] is LBAA glyphosate oxidoreductase variant w1w2v3 (SER84, LYS153, ARG334) (Ochrobactrum sp. G-1, UniProt D2KI28, H334R/S2A). Description: Kinetic analysis of domain switches, clone w1w2v3. It is filed as biochemical, bacterial isolate LBAA (Pseudomonas strain LBAA). Conditions: substrate glyphosate. The procedure: as §1
Test [6] deals with LBAA glyphosate oxidoreductase variant v1v2w3 (GLY84, ARG153, HIS334) (Ochrobactrum sp. G-1, UniProt D2KI28, K153R/S2A/S84G). Description: Kinetic analysis of domain switches, clone v1v2w3. It counts as biochemical, bacterial isolate LBAA (Pseudomonas strain LBAA). Conditions: substrate glyphosate. The procedure: as §1

Regarding `O=C(O)CNCP(=O)(O)O` [glyphosate, N-phosphonomethyl-glycine], the “VmKm (Glyp)” value in test [1] is listed as “.23”. The Km (as a rule, the concentration of substrate that gives half-maximal velocity) in test [2] was found to be 28 mM. For the same molecule, the VmKm came out at 0.21 in test [3], 0.027 in test [4], 0.375 in test [5] and 0.021 in test [6].

(Values after patent USRE38825E1, “Glyphosate tolerant plants” (Monsanto Technology LLC, priority 1990, dated 2005).)
